Earlier results in patent publication US8871712B2, “Somatostatin analogue formulations” (Camurus AB, priority 2005, dated 2014).

Details: in vivo

For `C[C@@H](O)[C@@H]1NC(=O)[C@H](CCCCN)NC(=O)[C@@H](Cc2c[nH]c3ccccc23)NC(=O)[C@H](Cc2ccccc2)NC(=O)[C@@H](NC(=O)[C@H](N)Cc2ccccc2)CSSC[C@@H](C(=O)N[C@H](CO)[C@@H](C)O)NC1=O` [Octreotide, D-Phe-Cys-Phe-D-Trp-Lys-Thr-Cys-Thr-ol (2-7 disulphide bridge)], the Terminal half-life is listed as “around 1.7 hours”.
